# Values of other authors in patent US20060105962A1, “TONIC TO MAINTAIN INTESTINAL FLORA” (priority 2004, published 2006).
# Test system: rats
# Settings: exposure over a thirteen week period, up to 100% safety
compound,measurement,value
"O=Cc1ccco1 [furfural compounds, furfural]",exposure to furfural compounds demonstrated as up to 100% safe,53.0 mg/kg body weight
